In US9393221B2, “Methods and compounds for reducing intracellular lipid storage” (THE GENERAL HOSPITAL CORPORATION, priority 2011, dated 2016):
Counter-ions that a name gives are not always drawn.

Tested on: ATGL-KO iPSCs
Experiment: High throughput iPSC chemical screening, Oil Red O (ORO) lipid accumulation; on Z-score: test concentration or dose not given here
Type: cell-based, mouse
Conditions: not given

Row | Structure (SMILES) | Z-score
1 | CCN(CC)CCCC(C)Nc1ccnc2cc(Cl)ccc12 (stereo not drawn) [Chloroquine diphosphate] | 0.8301
2 | COc1cc2c(c(OC)c1OC)-c1ccc(OC)c(=O)cc1[C@@H](NC(C)=O)CC2 [Colchicine] | 35.6417

Same assay, conditions: glycolytic switch compounds

Row | Structure (SMILES) | Rank in normalized ORO score from screen
3 | CN(C)CC/C=C1/c2ccccc2Sc2ccc(Cl)cc21 [Chlorprothixene hydrochloride] | 223
4 | O=C1C=CC(=O)c2c1ccc1c2ccc2ccccc21 [Chrysene-1,4-quinone] | 133
5 | C(=C\c1ccccc1)/CN1CCN(C(c2ccccc2)c2ccccc2)CC1 [Cinnarizine] | 44
6 | CN1CCC[C@@H]1CCO[C@](C)(c1ccccc1)c1ccc(Cl)cc1 [Clemastine fumarate] | 197
7 | CCN(CC)CCOc1ccc(C(=C(Cl)c2ccccc2)c2ccccc2)cc1.O=C(O)CC(O)(CC(=O)O)C(=O)O [Clomiphene citrate (Z,E), reference compound] | 928
8 | Clc1ccc(C(OCCN2CCCCC2)c2ccccc2)cc1 (stereo not drawn) [Cloperastine hydrochloride] | 863
9 | Clc1ccccc1C(c1ccccc1)(c1ccccc1)n1ccnc1 [Clotrimazole] | 37
10 | CN(C)CCC=C1c2ccccc2C=Cc2ccccc21 [Cyclobenzaprine hydrochloride] | 579

Same assay, conditions: normalized ORO level vs DMSO-treated cells; compound present during 7 days differentiation, 96-well; negative = decrease in lipid accumulation

Row | Structure (SMILES) | Z-score
11 | CN1C(=O)CCS(=O)(=O)C1c1ccc(Cl)cc1 (stereo not drawn) [Chlormezanone] | −0.6525
12 | O=C(/C=C/c1ccc(O)c(O)c1)O[C@@H]1C[C@](O)(C(=O)O)C[C@@H](O)[C@H]1O [Chlorogenic acid] | 0.1486
13 | CN(C)CCN(Cc1ccc(Cl)cc1)c1ccccn1 [Chloropyramine hydrochloride] | 0.124
14 | NS(=O)(=O)c1cc2c(cc1Cl)N=CNS2(=O)=O [Chlorothiazide] | −0.1987
15 | COc1ccc(C(Cl)=C(c2ccc(OC)cc2)c2ccc(OC)cc2)cc1 [Chlorotrianisene] | −0.6534
16 | CN(C)CCC(c1ccc(Cl)cc1)c1ccccn1 (stereo not drawn) [Chlorpheniramine maleate] | −0.5399
17 | NC(=O)OCC(O)COc1ccc(Cl)cc1 (stereo not drawn) [Chlorphensin carbamate] | 0.4583
18 | CN(C)CCCN1c2ccccc2Sc2ccc(Cl)cc21 [Chlorpromazine hydrochloride] | −0.5417
19 | CCCNC(=O)NS(=O)(=O)c1ccc(Cl)cc1 [Chlorpropamide] | 0.199
20 | CN(C)CC/C=C1/c2ccccc2Sc2ccc(Cl)cc21 [Chlorprothixene hydrochloride] | −0.9824
21 | CN(C)[C@@H]1C(O)=C(C(N)=O)C(=O)[C@@]2(O)C(O)=C3C(=O)c4c(O)ccc(Cl)c4[C@@](C)(O)[C@H]3C[C@@H]12 [Chlortetracycline hydrochloride] | −0.5479
22 | NS(=O)(=O)c1cc(C2(O)NC(=O)c3ccccc32)ccc1Cl (stereo not drawn) [Chlorthalidone] | −0.3195
23 | C=C1CC[C@H](O)C/C1=C/C=C1\CCC[C@]2(C)[C@@H]([C@H](C)CCCC(C)C)CC[C@@H]12 [Cholecalciferol] | 0.4701
24 | O=C1C=CC(=O)c2c1ccc1c2ccc2ccccc21 [Chrysene-1,4-quinone] | −1.1808
25 | O=c1cc(-c2ccccc2)oc2cc(O)cc(O)c12 [Chrysin] | −0.7142
26 | Cc1cc(C2CCCCC2)n(O)c(=O)c1.NCCO [Ciclopirox ethanolamine] | 40.334
27 | CN/C(=N/CCSCc1nc[nH]c1C)NC#N [Cimetidine] | −0.2141
28 | C=C[C@H]1C[N@@]2CC[C@H]1C[C@@H]2[C@@H](O)c1ccnc2ccccc12 [Cinchonine] | −1.1697
29 | C(=C\c1ccccc1)/CN1CCN(C(c2ccccc2)c2ccccc2)CC1 [Cinnarizine] | −1.6064
30 | CCn1nc(C(=O)O)c(=O)c2cc3c(cc21)OCO3 [Cinoxacin] | 0.8009
31 | CC(C)(Oc1ccc(C2CC2(Cl)Cl)cc1)C(=O)O (stereo not drawn) [Ciprofibrate] | −0.5993
32 | O=C(O)c1cn(C2CC2)c2cc(N3CCNCC3)c(F)cc2c1=O [Ciprofloxacin hydrochloride] | −1.3212
33 | COc1cc(N)c(Cl)cc1C(=O)NC1CCN(CCCOc2ccc(F)cc2)CC1OC (stereo not drawn) [Cisapride] | 0.02062
34 | CN(C)CCCC1(c2ccc(F)cc2)OCc2cc(C#N)ccc21 (stereo not drawn) [Citalopram Hydrobromide] | 0.03052

Row | Structure (SMILES) | Z-score
35 | COc1cc(N)c(Cl)cc1C(=O)NC1CCN(Cc2ccccc2)CC1 [Clebopride maleate] | −0.108
36 | CN1CCC[C@@H]1CCO[C@](C)(c1ccccc1)c1ccc(Cl)cc1 [Clemastine fumarate] | −1.0269
37 | Clc1ccc(Cn2c(CN3CCCC3)nc3ccccc32)cc1 [Clemizole hydrochloride] | −0.5701
38 | CC(C)(C)NCC(O)c1cc(Cl)c(N)c(Cl)c1 (stereo not drawn) [Clenbuterol hydrochloride] | 0.2391
39 | C[N+]12CCC(CC1)C(OC(=O)C(O)(c1ccccc1)c1ccccc1)C2 (stereo not drawn) [Clidinium bromide, reference compound] | −1.8548
40 | Oc1c(I)cc(Cl)c2cccnc12 [Clioquinol] | −1.5195
41 | CCC(=O)O[C@]1(C(=O)CCl)[C@@H](C)C[C@H]2[C@@H]3CCC4=CC(=O)C=C[C@]4(C)[C@@]3(F)[C@@H](O)C[C@@]21C [Clobetasol propionate] | 2.1955
42 | C[C@@H]1C[C@H]2[C@@H]3C[C@H](F)C4=CC(=O)C=C[C@]4(C)[C@@]3(Cl)[C@@H](O)C[C@]2(C)[C@H]1C(=O)COC(=O)C(C)(C)C [Clocortolone pivalate] | 1.217
43 | CC(C)/N=c1\cc2n(-c3ccc(Cl)cc3)c3ccccc3nc-2cc1Nc1ccc(Cl)cc1 [Clofazimine] | −0.5584
44 | CC(C)(Oc1ccc(Cl)cc1)C(=O)O [Clofibric acid] | 2.297
45 | CCN(CC)CCOc1ccc(C(=C(Cl)c2ccccc2)c2ccccc2)cc1.O=C(O)CC(O)(CC(=O)O)C(=O)O [Clomiphene citrate (Z,E), reference compound] | 1.107
46 | Clc1cccc(Cl)c1N=C1NCCN1 [Clonidine hydrochloride] | 0.04408
47 | C[C@@H]1CCC[C@H](C)N1NC(=O)c1ccc(Cl)c(S(N)(=O)=O)c1 [Clopamide] | −0.9945
48 | Clc1ccc(C(OCCN2CCCCC2)c2ccccc2)cc1 (stereo not drawn) [Cloperastine hydrochloride] | 0.7661
49 | C#CCN(C)CCCOc1ccc(Cl)cc1Cl [Clorgyline hydrochloride] | −0.8658
50 | Nc1cc(C(Cl)=C(Cl)Cl)c(S(N)(=O)=O)cc1S(N)(=O)=O [Clorsulon] | −0.1576
51 | Clc1ccccc1C(c1ccccc1)(c1ccccc1)n1ccnc1 [Clotrimazole] | −1.6708
52 | Cc1onc(-c2ccccc2Cl)c1C(=O)N[C@@H]1C(=O)N2[C@@H]1SC(C)(C)[C@@H]2C(=O)O [Cloxacillin sodium salt] | −1.0101
53 | CN1CCN(C2=Nc3cc(Cl)ccc3Nc3ccccc32)CC1 [Clozapine] | 0.4154
54 | CCN1C[C@]2(COC)CC[C@H](O)[C@@]34C5C[C@@H]6[C@@H](OC)C[C@](O)(C(CC23)C14)C5[C@H]6OC(C)=O (stereo partly drawn) [Condelphine] | 0.3143
55 | COc1ccc(C(=O)OC2C[C@H]3CC[C@@H](C2)N3C)cc1OC.Cl (stereo partly drawn) [Convolamine hydrochloride] | −1.0829
56 | COc1cc2cc3c4cc(OC)c(OC)cc4cc[n+]3c(C)c2cc1OC.O.[Cl-] [Coralyne chloride hydrate] | 7.275
57 | C[C@]12C[C@H](O)[C@H]3[C@@H](CCC4=CC(=O)CC[C@@]43C)[C@@H]1CC[C@@H]2C(=O)CO [Corticosterone] | −1.2709
58 | C[C@]12CCC(=O)C=C1CC[C@@H]1[C@@H]2C(=O)C[C@@]2(C)[C@H]1CC[C@]2(O)C(=O)CO [Cortisone] | −1.8033

Row | Structure (SMILES) | Z-score
59 | COC(=O)[C@H]1[C@H]2C[C@H]3c4[nH]c5ccccc5c4CCN3C[C@@H]2CC[C@@H]1O.Cl [Corynanthine hydrochloride] | −0.2498
60 | O=C(O)c1cc(=O)c2c(OCC(O)COc3cccc4oc(C(=O)O)cc(=O)c34)cccc2o1 [Cromolyn disodium salt] | −1.7273
61 | CC=CC(=O)N(CC)c1ccccc1C [Crotamiton] | 2.886
62 | CC1(C)S[C@@H]2[C@H](NC(=O)C3(N)CCCCC3)C(=O)N2[C@H]1C(=O)O [Cyclacillin] | 2.402
63 | CN1CCN(C(c2ccccc2)c2ccccc2)CC1 [Cyclizine hydrochloride] | −0.9231
64 | CN(C)CCC=C1c2ccccc2C=Cc2ccccc21 [Cyclobenzaprine hydrochloride] | −0.1421
65 | C[C@@H]1C[C@@H]([C@H](O)CC2CC(=O)NC(=O)C2)C(=O)[C@@H](C)C1 [Cycloheximide] | 56.1385
66 | NS(=O)(=O)c1cc2c(cc1Cl)NC(CC1CCCC1)NS2(=O)=O (stereo not drawn) [Cyclopenthiazide] | −1.4107
67 | CN(C)CCOC(=O)C(c1ccccc1)C1(O)CCCC1 (stereo not drawn) [Cyclopentolate hydrochloride] | 1.252
68 | CN1CCC(=C2c3ccccc3C=Cc3ccccc32)CC1 [Cyproheptadine hydrochloride] | −1.6013
69 | CC(=O)O[C@]1(C(C)=O)CC[C@H]2[C@@H]3C=C(Cl)C4=CC(=O)[C@@H]5C[C@@H]5[C@]4(C)[C@H]3CC[C@@]21C [Cyproterone acetate] | −1.2528
70 | N[C@@H]1CONC1=O [D-cycloserine] | −1.0332
71 | CN(C)/N=N/c1[nH]cnc1C(N)=O [Dacarbazine] | −0.3016
72 | C#C[C@]1(O)CC[C@H]2[C@@H]3CCC4=Cc5oncc5C[C@]4(C)[C@H]3CC[C@@]21C [Danazol] | −1.2973
73 | O=C1CN(/N=C/c2ccc(-c3ccc([N+](=O)[O-])cc3)o2)C(O)=N1 [Dantrolene sodium salt] | −0.3347
74 | Nc1ccc(S(=O)(=O)c2ccc(N)cc2)cc1 [Dapsone] | −0.4061
75 | COc1cccc2c1C(=O)c1c(O)c3c(c(O)c1C2=O)C[C@@](O)(C(C)=O)C[C@@H]3O[C@H]1C[C@H](N)[C@H](O)[C@H](C)O1 [Daunorubicin hydrochloride] | 28.7571
76 | N=C(N)N1CCc2ccccc2C1 [Debrisoquin sulfate] | 0.2228
77 | C[N+](C)(C)CCCCCCCCCC[N+](C)(C)C [Decamethonium bromide] | −0.0864
78 | CC(=O)N(O)CCCCCNC(=O)CCC(=O)N(O)CCCCCNC(=O)CCC(=O)N(O)CCCCCN [Deferoxamine mesylate] | 12.8786
79 | C[C@H](CCC(=O)O)[C@H]1CC[C@H]2[C@@H]3C(=O)C[C@@H]4CC(=O)CC[C@]4(C)[C@H]3CC(=O)[C@]12C [Dehydrocholic acid] | −1.006
80 | CC(=O)O[C@H]1CC[C@@]2(C)C(=CC[C@@H]3[C@@H]2CC[C@]2(C)C(=O)CC[C@@H]32)C1 [Dehydroisoandosterone 3-acetate] | −0.697
81 | CCN1C[C@]2(COC)CC[C@H](OC)[C@]34C5C[C@@H]6[C@@H](OC)C[C@@]7(OCO[C@@]7(C13)[C@@H](O)C24)C5[C@H]6OC (stereo partly drawn) [Delcorine] | −1.4115
